Data from patent US11261183B2, “Sulfoximine glycosidase inhibitors” (Asceneuron SA, priority 2016, dated 2022).

What was measured:
[1] = target: Human O-GlcNAcase (His-Tagged hOGA) (Homo sapiens (Human), UniProt O60502); experiment: Human O-GlcNAcase enzyme inhibition assay; format: biochemical; conditions: His-Tagged hOGA 20 nM, FL-GlcNAc 10 μM, 60 min, room temperature, pH 6.5; read-out: Enzymatic OGA IC50
Experimental: Example B01: Human O-GlcNAcase enzyme inhibition assay
5 μl of the appropriate concentration of a solution of inhibitor in McIlvaine's Buffer (pH 6.5) in 2% DMSO (for a dose response curve calculation) is added into each well of a 384-well plate (Greiner, 781900). Then, 20 nM of His-Tagged hOGA and 10 μM of FL-GlcNAc (Fluorescein mono-beta-D-(2-deoxy-2-N-acetyl) glucopyranoside; Marker Gene Technologies Inc, M1485) were added to the 384-well plate for a final volume of 20 μl. After incubation for 60 min at room temperature, the reaction was terminated by the addition of 10 μL of stop buffer (200 mM glycine, pH 10.75).

[2] = Protein binding in mice plasma using Rapid Equilibrium Dialysis; format: in vitro ADME, CD1 mice; conditions: 37° C.; for fraction unbound at 5 h, 1 µM: male, CD1, mouse, plasma, pH 7.4, CD1 mouse plasma
Experimental: Example B04: Protein binding in mice plasma using Rapid Equilibrium Dialysis
• CD1 Mice Plasma: pooled male, K2-EDTA ([…]2, Bioreclammation, USA • Phosphate Buffered Saline (1×PBS), pH 7.4, 100 mM (Sigma, Cat No. P4417) • RED inserts (Pierce, Cat No. 9006, 8 kDa MWCO) • Sample Analysis: LC-MS/MS Methods • Preparation of DMSO Stock Solution
From 20 mM DMSO stock solutions of reference and test compounds, 1 mM DMSO intermediate working solutions are prepared. From 1 mM intermediate working solutions, 100 μM DMSO working solutions are prepared. • Sample Preparation Procedure:
Selected plasma is brought from −20° C. to 37° C. using water bath before its use. Test solution is prepared by adding the DMSO working solution of the reference or test compound (2 μL; 100 μM) to the selected plasma (198 μL). Spiked plasma (200 μl) is transferred to sample compartment of RED insert placed in the teflon plate. 350 μl of 1×PBS is added in the buffer compartment of RED insert. The teflon plate is covered with sealing mat and agitated at 37° C. for 5 hours at 500 RPM in a Thermomixer. After incubation time, an aliquot of plasma (50 μl) from sample compartment is mixed with blank 1×PBS (50 μl). Similarly, an aliquot of buffer (50 μl) from buffer compartment is mixed with blank plasma (50 μl). Quenching solution (200 μL, acetonitrile containing internal standard tolbutamide (0.5 μg/mL)) is added and the resulting solutions are mixed using a vortex mixer and centrifuged (Eppendorf 5415, 13792 g). Supernatants are analyzed using a Mass Spectrometer. The sample (supernatant fraction, 5 μL) is injected into the LC-MS/MS instrument. • Chromatographic Conditions: LC-MS/MS: API 4000 LC-MS/MS Software: Analyst Version 1.6.1 Column Phenomenex Synergy 30*4.6*5μ Column Oven: 40° C. Mode: ESI Positive Injection volume: 5 μl Flow Rate: […] Buffer: 0.1% Formic acid in Water Method: Isocratic Method/Gradient Composition: A) 0.1% Formic acid in Water B) 0.1% Formic acid in Methanol
After the concentration of free drug and total drug has been determined by LCMS/MS, percent plasma protein binding can be calculated as follows:
[formula] Following this protocol, % fraction unbound in plasma from different species can be also measured.

Human O-GlcNAcase (His-Tagged hOGA), sequence (O60502 whole entry): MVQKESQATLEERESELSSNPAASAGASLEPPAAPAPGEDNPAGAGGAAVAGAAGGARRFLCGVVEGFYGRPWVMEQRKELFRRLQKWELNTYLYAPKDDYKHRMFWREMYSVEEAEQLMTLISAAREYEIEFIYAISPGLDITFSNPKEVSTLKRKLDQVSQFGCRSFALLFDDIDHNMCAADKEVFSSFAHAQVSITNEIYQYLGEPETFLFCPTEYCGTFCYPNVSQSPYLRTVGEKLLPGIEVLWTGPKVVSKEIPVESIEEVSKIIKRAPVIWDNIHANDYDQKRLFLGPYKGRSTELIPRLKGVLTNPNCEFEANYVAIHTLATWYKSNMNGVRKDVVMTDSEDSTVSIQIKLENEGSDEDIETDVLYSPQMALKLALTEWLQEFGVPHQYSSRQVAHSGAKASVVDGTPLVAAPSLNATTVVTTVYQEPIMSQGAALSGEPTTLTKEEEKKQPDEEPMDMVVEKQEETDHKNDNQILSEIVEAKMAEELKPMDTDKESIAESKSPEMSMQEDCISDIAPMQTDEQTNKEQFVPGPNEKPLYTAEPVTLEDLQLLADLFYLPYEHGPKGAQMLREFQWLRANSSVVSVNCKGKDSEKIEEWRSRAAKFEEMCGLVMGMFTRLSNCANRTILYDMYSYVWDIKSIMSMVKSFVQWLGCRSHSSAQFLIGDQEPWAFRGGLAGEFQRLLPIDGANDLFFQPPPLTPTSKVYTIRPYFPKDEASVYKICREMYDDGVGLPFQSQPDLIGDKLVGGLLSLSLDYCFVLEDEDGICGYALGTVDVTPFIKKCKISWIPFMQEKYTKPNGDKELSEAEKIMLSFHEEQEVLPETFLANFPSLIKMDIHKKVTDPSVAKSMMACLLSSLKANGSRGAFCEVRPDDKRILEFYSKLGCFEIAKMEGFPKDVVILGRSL

IC50 [1]	fraction unbound at 5 h, 1 µM [2]	% fraction unbound in mouse plasma ([2]; CD1 mouse plasma, 5 hours)	Compound
< 50 nM	–	–	CCN=S(C)(=O)c1cnc(N2CCN(C(C)c3ccc4c(c3)OCC4)CC2)nc1 (single isomer, unassigned) [Example 18]
< 50 nM	0.208	–	COCCN=S(C)(=O)c1cnc(N2CCN(C(C)c3ccc4c(c3)OCC4)CC2)nc1 (single isomer, unassigned) [Example 17]
50 to 200 nM	0.0545	–	Cc1nc2cc(C(C)N3CCN(c4ncc(S(C)(=O)=NC(C)C)cn4)CC3)ccc2s1 (racemic) [Example 49, (isopropylimino)(methyl)(2-(4-(1-(2-methylbenzo[d]thiazol-5-yl)ethyl)piperazin-1-yl)pyrimidin-5-yl)-λ^6-sulfanone]
50 to 200 nM	–	–	CC(C)N=S(C)(=O)c1cnc(N2CCN(C(C)c3ccc4scnc4c3)CC2)nc1 (racemic) [Example 28, (2-(4-(1-(benzo[d]thiazol-5-yl)ethyl)piperazin-1-yl)pyrimidin-5-yl)(isopropylimino)(methyl)-λ^6-sulfanone]
< 50 nM	–	–	CC(C)N=S(C)(=O)c1cnc(N2CCN(C(C)c3ccc4c(c3)OCC4)CC2)nc1 (single isomer, unassigned) [Example 19]
1000 to 10000 nM	–	–	CC(c1ccc2c(c1)OCC2)N1CCN(c2ncc(S(C)(=N)=O)cn2)CC1 (single isomer, unassigned) [Example 15]
–	0.222	–	CC1Cc2ccc(C(C)N3CCN(c4ncc(S(C)(=N)=O)cn4)CC3)cc2O1 (racemic) [Example 2, Imino(methyl)(2-(4-(1-(2-methyl-2,3-dihydrobenzofuran-6-yl)ethyl)piperazin-1-yl)pyrimidin-5-yl)-λ^6-sulfanone]
< 50 nM	–	–	CC(c1ccc2c(c1)OCC2)N1CCN(c2ncc(S(C)(=N)=O)cn2)CC1 (single isomer, unassigned) [Example 16, (2-(4-((S)-1-(2,3-dihydrobenzofuran-6-yl)ethyl)piperazin-1-yl)pyrimidin-5-yl)(imino)(methyl)-λ^6-sulfanone or (2-(4-((R)-1-(2,3-dihydrobenzofuran-6-yl)ethyl)piperazin-1-yl)pyrimidin-5-yl)(imino)(methyl)-λ^6-sulfanone]
200 to 1000 nM	–	–	CC(c1ccc2c(c1)OCC2)N1CCN(c2ncc(S(C)(=N)=O)cn2)CC1 (single isomer, unassigned) [Example 13]

More lines, now with the values behind:

Compound	IC50 [1]	fraction unbound at 5 h, 1 µM [2]	% fraction unbound in mouse plasma ([2]; CD1 mouse plasma, 5 hours)
Cc1nc2cc(C(C)N3CCN(c4ncc5c(n4)CCS(=N)(=O)C5)CC3)ccc2s1 (racemic) [Example 58, 6-imino-2-(4-(1-(2-methylbenzo[d]thiazol-5-yl)ethyl)piperazin-1-yl)-5,6,7,8-tetrahydro-6λ^4-thiopyrano[4,3-d]pyrimidine 6-oxide]	< 50 nM	–	–
Cc1nc2cc(C(C)N3CCN(c4ncc(S(C)(=N)=O)cn4)CC3)ccc2s1 (single isomer, unassigned) [Example 51]	< 50 nM	0.0838	–
CC(c1ccc2scnc2c1)N1CCN(c2ccc(S(C)(=N)=O)cc2)CC1 (racemic) [Example 33, (4-(4-(1-(benzo[d]thiazol-5-yl)ethyl)piperazin-1-yl)phenyl)(imino)(methyl)-λ^6-sulfanone]	50 to 200 nM	0.132	–
CC(c1ccc2scnc2c1)N1CCN(c2ncc(C(=O)N=S(C)(C)=O)cn2)CC1 (racemic) [Example 32, 2-(4-(1-(benzo[d]thiazol-5-yl)ethyl)piperazin-1-yl)-N-(dimethyl(oxo)-λ^6-sulfanylidene)pyrimidine-5-carboxamide]	< 50 nM	0.0535	–
CC(c1ccc2scnc2c1)N1CCN(c2ncc(N=S(C)(C)=O)cn2)CC1 (racemic) [Example 31, ((2-(4-(1-(benzo[d]thiazol-5-yl)ethyl)piperazin-1-yl)pyrimidin-5-yl)imino)dimethyl-λ^6-sulfanone]	< 50 nM	0.229	–
CC(c1ccc2scnc2c1)N1CCN(c2ncc(S(C)(=N)=O)cn2)CC1 (single isomer, unassigned) [Example 35]	< 50 nM	–	33.7%
Cc1nc2cc(C(C)N3CCN(c4ccc(S(C)(=N)=O)cc4)CC3)ccc2s1 (racemic) [Example 50, imino(methyl)(4-(4-(1-(2-methylbenzo[d]thiazol-5-yl)ethyl)piperazin-1-yl)phenyl)-λ^6-sulfanone]	< 50 nM	–	–
CC(c1ccc2scnc2c1)N1CCN(c2ncc(S(C)(=N)=O)cn2)CC1 (single isomer, unassigned) [Example 41]	1000 to 10000 nM	–	–
CC(c1ccc2scnc2c1)N1CCN(c2ncc(S(C)(=N)=O)cn2)CC1 (single isomer, unassigned) [Example 40]	1000 to 10000 nM	–	–
Cc1nc2cc(C(C)N3CCN(c4ncc(S(C)(=N)=O)cn4)CC3)ccc2s1 (single isomer, unassigned) [Example 54]	1000 to 10000 nM	–	–
Cc1nc2cc(C(C)N3CCN(c4ncc(S(C)(=N)=O)cn4)CC3)ccc2s1 (single isomer, unassigned) [Example 52]	200 to 1000 nM	–	–
CCCS(=N)(=O)c1cnc(N2CCN(C(C)c3ccc4sc(C)nc4c3)CC2)nc1 (racemic) [Example 44, Imino(2-(4-(1-(2-methylbenzo[d]thiazol-5-yl)ethyl)piperazin-1-yl)pyrimidin-5-yl)(propyl)-λ^6-sulfanone]	< 50 nM	–	–
CC(c1ccc2scnc2c1)N1CCN(c2ncc(S(C)(=N)=O)cn2)CC1 (single isomer, unassigned) [Example 38, (R)-(2-(4-(1-(benzo[d]thiazol-5-yl)ethyl)piperazin-1-yl)pyrimidin-5-yl)(imino)(methyl)-λ^6-sulfanone or (S)-(2-(4-(1-(benzo[d]thiazol-5-yl)ethyl)piperazin-1-yl)pyrimidin-5-yl)(imino)(methyl)-λ^6-sulfanone]	50 to 200 nM	–	–
CC(c1ccc2c(c1)OCC2)N1CCN(c2ncnc3c2CS(=N)(=O)C3)CC1 (stereo not shown) [Example 60, 4-(4-(1-(2,3-dihydrobenzofuran-6-yl)ethyl)piperazin-1-yl)-6-imino-6,7-dihydro-5H-6δ^4-thieno[3,4-d]pyrimidine 6-oxide]	–	0.0779	–
CC(c1ccc2scnc2c1)N1CCN(c2ncc(S(C)(=N)=O)cn2)CC1 (single isomer, unassigned) [Example 39, (R)-(2-(4-(1-(benzo[d]thiazol-5-yl)ethyl)piperazin-1-yl)pyrimidin-5-yl)(imino)(methyl)-λ^6-sulfanone or (S)-(2-(4-(1-(benzo[d]thiazol-5-yl)ethyl)piperazin-1-yl)pyrimidin-5-yl)(imino)(methyl)-λ^6-sulfanone]	< 50 nM	–	–
CCS(=N)(=O)c1cnc(N2CCN(C(C)c3ccc4sc(C)nc4c3)CC2)nc1 (racemic) [Example 43, ethyl(imino)(2-(4-(1-(2-methylbenzo[d]thiazol-5-yl)ethyl)piperazin-1-yl)pyrimidin-5-yl)-λ^6-sulfanone]	< 50 nM	–	–
CC(c1ccc2nccnc2c1)N1CCN(c2ncc(S(C)(=N)=O)cn2)CC1 (racemic) [Example 57, imino(methyl)(2-(4-(1-(quinoxalin-6-yl)ethyl)piperazin-1-yl)pyrimidin-5-yl)-λ^6-sulfanone]	50 to 200 nM	–	–
CN=S(C)(=O)c1ccc(N2CCN(C(C)c3ccc4scnc4c3)CC2)nc1 (racemic) [Example 30, (6-(4-(1-(benzo[d]thiazol-5-yl)ethyl)piperazin-1-yl)pyridin-3-yl)(methyl)(methylimino)-λ^6-sulfanone]	50 to 200 nM	–	–
